{"source": "patent US20100298377A1", "about": "“NOVEL SUBSTITUTED INDAZOLES, THE PREPARATION THEREOF AND USE OF SAME IN THERAPEUTICS” (SANOFI-AVENTIS, priority 2007, published 2010)", "key": {"[1]": {"target": "AKT1 (Homo sapiens, UniProt P31749, S473D)", "sequence (P31749 118-480 S473D limits assumed)": "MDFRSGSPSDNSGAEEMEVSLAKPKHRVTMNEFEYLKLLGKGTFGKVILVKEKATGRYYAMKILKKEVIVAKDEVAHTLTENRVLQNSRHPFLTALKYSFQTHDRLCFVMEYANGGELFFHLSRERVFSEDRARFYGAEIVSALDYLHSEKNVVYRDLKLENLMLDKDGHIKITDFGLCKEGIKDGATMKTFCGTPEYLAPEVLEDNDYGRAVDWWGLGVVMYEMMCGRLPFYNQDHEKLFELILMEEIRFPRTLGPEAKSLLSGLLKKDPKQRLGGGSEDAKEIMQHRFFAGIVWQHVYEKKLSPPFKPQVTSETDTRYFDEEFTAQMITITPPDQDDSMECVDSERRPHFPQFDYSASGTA", "experiment": "Determination of the IC50 for AKT1 (HTRF)", "type": "biochemical", "conditions": "AKT1 without PH domain, activated by PDK1", "method": "Determination of the IC50 for AKT1\nThe inhibitory potential of the compounds is evaluated by HTRF, a time-resolved fluorescence technique based on non-radiative energy transfer (FRET). […] This phosphorylation allows the kinase activity of AKT1 to be activated.\nStarting with a 10 mM solution of inhibitors, 3 μl are taken and placed in a 96-well polypropylene plate containing 27 μl of 100% DMSO. The various test compounds are diluted in cascade by taking 15 μl of compound, to which are added 30 μl of 100% DMSO.\nThe various reaction components are added in the following manner:\nNext, 10 μl of the inhibitor solution are added. Finally, the reaction is initiated by adding 10 μl of a solution containing both 100 μM of ATP and 10 μM of biotinylated peptide. The sequence of this peptide is as follows: biot-[…] (reference Neosystem SP000560). The plate is then covered with a plastic film, agitated and finally incubated at RT for 30 minutes. […] After incubation overnight at 4° C., the plate is read using an Ultra evolution spectrophotometer from Tecan. […] All the tests are performed in duplicate and the mean of the two tests is calculated.\nFor each point, a delta F is calculated in the following manner:\nR(Ratio)=counts665 nm/counts620 nm\nΔF % is calculated by the Tecan Ultra Evolution machine."}}, "note": "Counter-ions that a name gives are not always drawn."}
{"compound": "CN1CCCCC1C(NC(=O)Nc1ccc2[nH]nc(NC(=O)c3ccccc3)c2c1)c1ccccc1", "note": "(as salt: fumarate) [Ex 28, N-[5-({[(1-Methylpiperid-2-yl)(phenyl)methyl]carbamoyl}amino)-1H-indazol-3-yl]benzamide((S,2S),(R,2R))]", "values": [{"measurement": "melting point", "value": 235, "unit": "°C"}]}
{"compound": "CN1CCCCC1C(c1ccccc1)n1ccn(-c2ccc3[nH]ncc3c2)c1=O", "note": "(as salt: fumarate) [Ex 30, 1-(1H-Indazol-5-yl)-3-[(1-methylpiperid-2-yl)phenylmethyl]-1,3-dihydroimidazol-2-one((S,2S),(R,2R))]", "values": [{"measurement": "melting point", "value": "231 to 232", "unit": "°C"}]}
{"compound": "S=C(Nc1ccc2[nH]ncc2c1)N[C@@H](c1ccc(Cl)c(Cl)c1)[C@@H]1CCCCN1", "note": "(as salt: fumarate) [Ex 31, 1-{(S)-(3,4-Dichlorophenyl)[(2S)-piperid-2-yl]methyl}-3-(1H-indazol-5-yl)thiourea]", "values": [{"measurement": "melting point", "value": 145, "unit": "°C"}]}
{"compound": "CN1CCCCC1C(NC(=O)Nc1ccc2[nH]nc(-c3ccc(S(N)(=O)=O)cc3)c2c1)c1ccccc1", "note": "(as salt: fumaric acid salt) [Ex 12, 4-[5-({[(1-Methylpiperid-2-yl)(phenyl)methyl]carbamoyl}amino)-1H-indazol-3-yl]benzenesulfonamide((S,2S),(R,2R))]", "values": [{"measurement": "melting point", "value": 220, "unit": "°C"}]}
{"compound": "CN1CCCCC1C(NC(=O)Nc1ccc2[nH]nc(-c3ccncc3)c2c1)c1ccccc1", "note": "(as salt: fumaric acid salt) [Ex 13, 1-[(1-Methylpiperid-2-yl)(phenyl)methyl]-3-(3-pyrid-4-yl-1H-indazol-5-yl)urea((S,2S),(R,2R))]", "values": [{"measurement": "melting point", "value": 205, "unit": "°C"}]}
{"compound": "CN1CCCCC1C(NC(=O)Nc1ccc2[nH]nc(-c3cccnc3)c2c1)c1ccccc1", "note": "(as salt: fumaric acid salt) [Ex 14, 1-[(1-Methylpiperid-2-yl)(phenyl)methyl]-3-(3-pyrid-3-yl-1H-indazol-5-yl)urea((S,2S),(R,2R))]", "values": [{"measurement": "melting point", "value": 210, "unit": "°C"}]}
{"compound": "CN1CCCCC1C(NC(=O)Nc1ccc2[nH]nc(-c3ccccn3)c2c1)c1ccccc1", "note": "(as salt: fumaric acid salt) [Ex 15, 1-[(1-Methylpiperid-2-yl)(phenyl)methyl]-3-(3-pyrid-2-yl-1H-indazol-5-yl)urea((S,2S),(R,2R))]", "values": [{"measurement": "melting point", "value": "> 250", "unit": "°C"}]}
{"compound": "CN1CCCCC1C(NC(=O)Nc1ccc2[nH]nc(-c3nc4ccccc4[nH]3)c2c1)c1ccccc1", "note": "(as salt: fumaric acid salt) [Ex 17, 1-[3-(1H-Benzimidazol-2-yl)-1H-indazol-5-yl]-3-[(1-methylpiperid-2-yl)(phenyl)methyl]urea((S,2S),(R,2R))]", "values": [{"measurement": "melting point", "value": 250, "unit": "°C"}]}
{"compound": "Cc1n[nH]c2ccc(NC(=O)NC(c3ccccc3)C3CCCCN3C)cc12", "note": "(as salt: fumaric acid salt) [Ex 18, 3-Methyl-5-({[(1-methylpiperid-2-yl)(phenyl)methyl]carbamoyl}amino)-1H-indazole ((S,2S),(R,2R))]", "values": [{"measurement": "melting point", "value": "200 to 201", "unit": "°C"}]}
{"compound": "CN1CCCCC1C(NC(=O)Nc1cc(F)c2[nH]nc(NC(=O)c3ccccc3)c2c1)c1ccccc1", "note": "(as salt: fumaric acid salt) [Ex 19, N-[7-Fluoro-5-({[(1-methylpiperid-2-yl)(phenyl)methyl]carbamoyl}amino)-1H-indazol-3-yl]benzamide((S,2S),(R,2R))]", "values": [{"measurement": "melting point", "value": 164, "unit": "°C"}]}
{"compound": "CN1CCCCC1C(NC(=O)Nc1cc(F)c2[nH]nc(N)c2c1)c1ccccc1", "note": "(as salt: fumaric acid salt) [Ex 20, 1-(3-Amino-7-fluoro-1H-indazol-5-yl)-3-[(1-methylpiperid-2-yl)(phenyl)methyl]urea((S,2S),(R,2R))]", "values": [{"measurement": "melting point", "value": "221 to 222", "unit": "°C"}]}
{"compound": "CN1CCCCC1C(NC(=O)Nc1cc(F)c2[nH]ncc2c1)c1ccccc1", "note": "(as salt: fumaric acid salt) [Ex 21, 1-(7-Fluoro-1H-indazol-5-yl)-3-[(1-methylpiperid-2-yl)(phenyl)methyl]urea((S,2S),(R,2R))]", "values": [{"measurement": "melting point", "value": "224 to 227", "unit": "°C"}]}
{"compound": "CN1CCCCC1C(NC(=O)Nc1ccc2[nH]nc(C#Cc3ccccc3)c2c1)c1ccccc1", "note": "(as salt: fumaric acid salt) [Ex 23, 1-[(1-Methylpiperid-2-yl)(phenyl)methyl]-3-[3-(phenylethynyl)-1H-indazol-5-yl]urea((S,2S),(R,2R))]", "values": [{"measurement": "melting point", "value": 227, "unit": "°C"}]}
{"compound": "CN1CCCCC1C(NC(=O)Nc1ccc2[nH]nc(C#Cc3ccc(F)cc3)c2c1)c1ccccc1", "note": "(as salt: fumaric acid salt) [Ex 24, 1-{3-[(4-Fluorophenyl)ethynyl]-1H-indazol-5-yl}-3-[(1-methylpiperid-2-yl)(phenyl)methyl]urea((S,2S),(R,2R))]", "values": [{"measurement": "melting point", "value": 244, "unit": "°C"}]}
{"compound": "CN1CCCCC1C(NC(=O)Nc1ccc2[nH]nc(C#Cc3cccnc3)c2c1)c1ccccc1", "note": "(as salt: fumaric acid salt) [Ex 25, 1-[(1-Methylpiperid-2-yl)(phenyl)methyl]-3-[3-(pyrid-3-ylethynyl)-1H-indazol-5-yl]urea((S,2S),(R,2R))]", "values": [{"measurement": "melting point", "value": 230, "unit": "°C"}]}
{"compound": "CN1CCCCC1C(NC(=O)Nc1ccc2[nH]nc(-c3ccc(S(N)(=O)=O)cc3)c2c1)c1ccccc1", "note": "[Ex 12, 4-[5-({[(1-Methylpiperid-2-yl)(phenyl)methyl]carbamoyl}amino)-1H-indazol-3-yl]benzenesulfonamide((S,2S),(R,2R))]", "values": [{"measurement": "IC50", "setting": "[1]", "value": "< 100", "unit": "nM"}]}
{"compound": "CN1CCCCC1C(NC(=O)Nc1ccc2[nH]nc(-c3cccnc3)c2c1)c1ccccc1", "note": "[Ex 14, 1-[(1-Methylpiperid-2-yl)(phenyl)methyl]-3-(3-pyrid-3-yl-1H-indazol-5-yl)urea((S,2S),(R,2R))]", "values": [{"measurement": "IC50", "setting": "[1]", "value": "< 100", "unit": "nM"}]}
{"compound": "CN1CCCCC1C(NC(=O)Nc1cc(F)c2[nH]nc(NC(=O)c3ccccc3)c2c1)c1ccccc1", "note": "[Ex 19, N-[7-Fluoro-5-({[(1-methylpiperid-2-yl)(phenyl)methyl]carbamoyl}amino)-1H-indazol-3-yl]benzamide((S,2S),(R,2R))]", "values": [{"measurement": "IC50", "setting": "[1]", "value": "500 to 2000", "unit": "nM"}]}
{"compound": "CN1CCCCC1C(NC(=O)Nc1ccc2[nH]nc(C#Cc3cccc(F)c3)c2c1)c1ccccc1", "note": "[Ex 22, 1-{3-[(3-Fluorophenyl)ethynyl]-1H-indazol-5-yl}-3-[(1-methylpiperid-2-yl)(phenyl)methyl]urea((S,2S),(R,2R))]", "values": [{"measurement": "IC50", "setting": "[1]", "value": "100 to 500", "unit": "nM"}]}
{"compound": "O=C(Nc1ccc2[nH]nc(C#Cc3ccccc3)c2c1)N[C@@H](c1ccc(Cl)c(Cl)c1)[C@@H]1CCCCN1", "note": "[Ex 26, 1-{(S)-(3,4-Dichlorophenyl)[(2S)-piperid-2-yl]methyl}-3-[3-(phenylethynyl)-1H-indazol-5-yl]urea]", "values": [{"measurement": "IC50", "setting": "[1]", "value": "100 to 500", "unit": "nM"}]}
{"compound": "CN1CCCCC1C(NC(=O)Nc1ccc2[nH]nc(NC(=O)c3ccccc3)c2c1)c1ccccc1", "note": "[Ex 28, N-[5-({[(1-Methylpiperid-2-yl)(phenyl)methyl]carbamoyl}amino)-1H-indazol-3-yl]benzamide((S,2S),(R,2R))]", "values": [{"measurement": "IC50", "setting": "[1]", "value": "100 to 500", "unit": "nM"}]}
{"compound": "CN1CCCCC1C(c1ccccc1)n1ccn(-c2ccc3[nH]ncc3c2)c1=O", "note": "[Ex 30, 1-(1H-Indazol-5-yl)-3-[(1-methylpiperid-2-yl)phenylmethyl]-1,3-dihydroimidazol-2-one((S,2S),(R,2R))]", "values": [{"measurement": "IC50", "setting": "[1]", "value": "100 to 500", "unit": "nM"}]}
{"compound": "CN1CCCCC1C(c1ccccc1)N(C)C(=O)Nc1ccc2[nH]ncc2c1", "note": "[Ex 32, 3-(1H-Indazol-5-yl)-1-methyl-1-[(1-methylpiperid-2-yl)phenylmethyl]urea((S,2S),(R,2R))]", "values": [{"measurement": "IC50", "setting": "[1]", "value": "500 to 2000", "unit": "nM"}]}
{"compound": "CN(C(=O)NC(c1ccccc1)C1CCCCN1C)c1ccc2[nH]ncc2c1", "note": "[Ex 33, 1-(1H-Indazol-5-yl)-1-methyl-3-[(1-methylpiperid-2-yl)(phenyl)methyl]urea((S,2S),(R,2R))]", "values": [{"measurement": "IC50", "setting": "[1]", "value": "500 to 2000", "unit": "nM"}]}
{"compound": "O=C(Nc1ccc2[nH]ncc2c1)O[C@@H](c1cc(F)cc(Cl)c1)[C@H]1CCCCN1", "note": "[Ex 39c, (S)-(3-Chloro-5-fluorophenyl)[(2R)-piperid-2-yl]methyl 1H-indazol-5-ylcarbamate]", "values": [{"measurement": "IC50", "setting": "[1]", "value": "100 to 500", "unit": "nM"}]}
{"compound": "O=C(Nc1ccc2[nH]ncc2c1)O[C@H](c1cc(F)cc(Cl)c1)[C@H]1CCCCN1", "note": "[Ex 39d, (R)-(3-Chloro-5-fluorophenyl)[(2R)-piperid-2-yl]methyl 1H-indazol-5-ylcarbamate]", "values": [{"measurement": "IC50", "setting": "[1]", "value": "< 100", "unit": "nM"}]}
{"compound": "CCOC(=O)c1cccc(C(OC(=O)Nc2ccc3[nH]ncc3c2)[C@@H]2CCCCN2)c1", "note": "(stereo partly drawn) [Ex 41, Ethyl 3-{[(1H-Indazol-5-ylcarbamoyl)oxy][(2S)-piperid-2-yl]methyl}benzoate]", "values": [{"measurement": "IC50", "setting": "[1]", "value": "500 to 2000", "unit": "nM"}]}
{"compound": "CC(C)(C)c1ccc(NC(=O)c2cccc(C(OC(=O)Nc3ccc4[nH]ncc4c3)[C@@H]3CCCCN3)c2)cc1", "note": "(stereo partly drawn) [Ex 42, {3-[(4-tert-Butylphenyl)carbamoyl]phenyl}[(2S)-piperid-2-yl]methyl 1H-Indazol-5-yl carbamate]", "values": [{"measurement": "IC50", "setting": "[1]", "value": "500 to 2000", "unit": "nM"}]}
{"compound": "O=C(Nc1ccc2[nH]ncc2c1)OC(c1cccc(C(=O)Nc2ccccc2)c1)[C@@H]1CCCCN1", "note": "(stereo partly drawn) [Ex 43, [3-(Anilinocarbonyl)phenyl][(2S)-piperid-2-yl]methyl 1H-Indazol-5-ylcarbamate]", "values": [{"measurement": "IC50", "setting": "[1]", "value": "100 to 500", "unit": "nM"}]}
{"compound": "O=C(Nc1ccc2[nH]ncc2c1)O[C@@H](c1cccc(C(F)(F)F)c1)[C@@H]1CCCCN1", "note": "[Ex 44, (S)-(3-Trifluoromethylphenyl)[(2S)-piperid-2-yl]methyl 1H-indazol-5-ylcarbamate]", "values": [{"measurement": "IC50", "setting": "[1]", "value": "< 100", "unit": "nM"}]}
{"compound": "O=C(Nc1ccc2[nH]ncc2c1)O[C@@H](c1cccc(I)c1)[C@@H]1CCCCN1", "note": "[Ex 45, (S)-(3-Iodophenyl)[(2S)-piperid-2-yl]methyl 1H-indazol-5-ylcarbamate]", "values": [{"measurement": "IC50", "setting": "[1]", "value": "< 100", "unit": "nM"}]}
{"compound": "(7-Fluoro-1H-indazol-5-yl)-(S)-(3-chloro-5-fluorophenyl)-(S)-piperid-2-ylmethyl carbamate [Ex 49]", "values": [{"measurement": "IC50", "setting": "[1]", "value": "< 100", "unit": "nM"}]}
